Measured values taken from patent publication US20090131356A1, “miR-15, miR-26, miR-31, miR-145, miR-147, miR-188, miR-215, miR-216, miR-331, mmu-miR-292-3P REGULATED GENES AND PATHWAYS AS TARGETS FOR THERAPEUTIC INTERVENTION” (ASURAGEN, INC., priority 2006, published 2009).

Tested on: Du145 human prostate cancer cells
Experiment: Long-term growth curve with repeated electroporation, Du145
Assay type: cell-based
Conditions: 1.6 μM miRNA electroporated, repeated on days 7 and 14, day 20
Experimental: The inventors assessed the therapeutic effect of hsa-miR-15a for prostate cancer by using the Du145 human prostate cancer cell line, derived from a brain metastasis (Stone et al., 1978). The inventors conducted growth curve experiments in the presence of miRNA for up to 20 days. Since in vitro transfections of naked interfering RNAs, such as synthetic miRNA, are transient by nature and compromised by the dilution of the miRNA during ongoing cell divisions, miRNA was administered at multiple time points (Bartlett et al., 2006; Bartlett et al., 2007). To accommodate miRNA delivery into a large quantity of cells, the inventors employed the electroporation method for delivery of hsa-miR-15a or negative control miRNA into Du145 human prostate cancer cells. Briefly, 0.5×10^6 Du145 cells were electroporated with 1.6 μM hsa-miR-15a or negative control using the BioRad Gene Pulser Xcell™ instrument (BioRad Laboratories Inc., Hercules, Calif., USA), seeded and propagated in regular growth medium. Experiments were carried out in triplicates. When the control cells reached confluence (days 7 and 14), cells were harvested, counted and electroporated again with the respective miRNAs. To ensure similar treatment of both conditions as well as to accommodate exponential growth, the cell numbers used for the second and third electroporation were titrated down to the lowest count. The population doubling was calculated from these electroporation events using the formula PD=ln(Nf/N0)/ln2 and adjusting for the fact that approximately 72% of newly seeded cells adhere to the plate. Cell counts were extrapolated and plotted on a linear scale (FIG. 10). Arrows represent electroporation days. Standard deviations are included in the graphs.
To evaluate the therapeutic activity of hsa-miR-147 over an extended period of time, the inventors conducted growth curve experiments in the presence of miRNA for up to 21 days. Since in vitro transfections of naked interfering RNAs, such as synthetic miRNA, are transient by nature and compromised by the dilution of the oligo during ongoing cell divisions, miRNA was administered at multiple time points (Bartlett et al., 2006; Bartlett et al., 2007). To accommodate miRNA delivery into a large quantity of cells, the inventors employed the electroporation method to delivery hsa-miR-147 or negative control miRNA into PC3 and Du145 human prostate cancer cells. […] When the control cells reached confluence (days 7 and 14), cells were harvested, counted and electroporated again with the respective miRNAs. […] The population doubling was calculated from these electroporation events using the formula PD=ln(Nf/N0)/ln2 and adjusting for the fact that approximately 72% of newly seeded cells adhere to the plate. […]

hsa-miR-15a: Synthetic pre-miR-15a (Ambion); mature sequence UAGCAGCACAUAAUGGUUUGUG, MIMAT0000068, SEQ ID NO:1 (synthetic pre-miR (Ambion), chemistry not given here; listed as Homo sapiens)
cells relative to cells electroporated with negative control miRNA: 11.8%
inhibition of Du145 cell growth (relative to proliferation of control cells (100%)): 88.2%
